Reference: US12023345B2, “Compositions and methods for treating lysosomal disorders” (RUSH UNIVERSITY MEDICAL CENTER, priority 2014, dated 2024)

How the values were obtained:
Type in all cases: cell-based
[1] = tested on: LAMP2; assay: LAMP2 protein by Western blot and immunocytochemistry in mouse primary brain cells; details: for level of LAMP2 (Western blot): different doses of aspirin
Description: Immunostaining of Cells: Immunocytochemistry was performed as described earlier (29). Briefly, 8 well chamber slides containing mouse primary astrocytes, mouse neurons were cultured to 70-80% confluence were fixed with chilled Methanol (Fisher Scientific, Waltham, MA) overnight, followed by two brief rinses with filtered PBS. Samples were blocked with 2% BSA (Fisher Scientific) in PBS containing Tween 20 (Sigma) and Triton X-100 (Sigma) for 30 min and incubated at room temperature under shaking conditions for 2 hr in PBS containing the following anti-mouse primary antibodies: TFEB (1:1000; Abcam), GFAP, (1:1000; DAKO), LAMP2 (1:500, Abcam), NeuN (1:500, Millipore), and MAP2 (1:200, Millipore). […] Following four 15 minute washes with filtered PBS, cells were incubated for 4-5 min with 4′, 6-diamidino-2-phenylindole (DAPI, 1:10,000; Sigma). The samples were run in an EtOH and Xylene (Fisher) gradient, mounted, and observed under Olympus BX41 fluorescence microscope.
(§1) Immunoblotting: Western blotting was conducted as described earlier (31, 32) with modifications. Briefly, cells were scraped in 1× RIPA buffer, protein was measured using Bradford reagent and sodium dodecyl sulfate (SDS) buffer was added and electrophoresed on NuPAGE® Novex® 4-12% Bis-Tris gels (Invitrogen) and proteins transferred onto a nitrocellulose membrane (Bio-Rad) using the Thermo-Pierce Fast Semi-Dry Blotter.
The membrane was then washed for 15 min in TBS plus Tween 20 (TBST) and blocked for 1 hr in TBST containing BSA. Next, membranes were incubated overnight at 4° C. under shaking conditions with the following 1° antibodies; TFEB (1:1000, Abcam), LAMP2 (1:500, Abcam) and β-actin (1:800; Abcam, Cambridge, MA). The next day, membranes were washed in TBST for 1 hr, incubated in 2° antibodies against 1° antibody hosts (all 1:10,000; Jackson ImmunoResearch) for 1 hr at room temperature, washed for one more hour and visualized under the Odyssey® Infrared Imaging System (Li-COR, Lincoln, NE).

[2] = tested on: TPP1; assay: TPP1 protein by Western blot in primary mouse astrocytes
Description: 12(A) Cells were treated with different concentrations of aspirin for 24 h under serum-free condition followed by Western blot for TPP1. 12(B) Cells were treated with 5 μM aspirin for different time periods under serum-free condition followed by Western blot for TPP1. Actin was run as a house keeping molecule. 12(C) Cells were treated with different concentrations of aspirin for 24 h under serum-free condition followed by TPP1 activity assay using cell extract containing 5 μg of total protein and Ala-Ala-Phe 7-amido-4-methylcoumarin as substrate. Results represent three independent experiments.
as §1

[3] = biological target: T1, PPARα (Mus musculus, UniProt P23204); assay: Electrophoretic mobility shift assay of DNA-binding activity of PPARα; details: astrocytes, 5 μM aspirin, different min intervals
T1 construct: endogenous in cells; host or cells: primary mouse astrocytes (nuclear extracts)
T1 sequence (P23204 1-468): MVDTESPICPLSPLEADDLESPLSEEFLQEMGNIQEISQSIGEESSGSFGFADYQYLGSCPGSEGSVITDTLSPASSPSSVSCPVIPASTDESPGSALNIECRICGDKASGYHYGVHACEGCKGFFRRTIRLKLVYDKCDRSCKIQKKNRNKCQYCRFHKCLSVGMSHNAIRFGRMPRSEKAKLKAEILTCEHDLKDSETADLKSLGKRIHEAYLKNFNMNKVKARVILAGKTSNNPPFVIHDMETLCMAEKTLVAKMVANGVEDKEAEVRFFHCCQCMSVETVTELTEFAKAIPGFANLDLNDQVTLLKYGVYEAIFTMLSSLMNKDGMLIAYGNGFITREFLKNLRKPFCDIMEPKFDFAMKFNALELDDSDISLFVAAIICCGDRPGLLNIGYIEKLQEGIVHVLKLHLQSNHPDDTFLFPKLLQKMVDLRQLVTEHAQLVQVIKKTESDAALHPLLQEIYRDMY
T1 sequence (P28700 1-467 partner): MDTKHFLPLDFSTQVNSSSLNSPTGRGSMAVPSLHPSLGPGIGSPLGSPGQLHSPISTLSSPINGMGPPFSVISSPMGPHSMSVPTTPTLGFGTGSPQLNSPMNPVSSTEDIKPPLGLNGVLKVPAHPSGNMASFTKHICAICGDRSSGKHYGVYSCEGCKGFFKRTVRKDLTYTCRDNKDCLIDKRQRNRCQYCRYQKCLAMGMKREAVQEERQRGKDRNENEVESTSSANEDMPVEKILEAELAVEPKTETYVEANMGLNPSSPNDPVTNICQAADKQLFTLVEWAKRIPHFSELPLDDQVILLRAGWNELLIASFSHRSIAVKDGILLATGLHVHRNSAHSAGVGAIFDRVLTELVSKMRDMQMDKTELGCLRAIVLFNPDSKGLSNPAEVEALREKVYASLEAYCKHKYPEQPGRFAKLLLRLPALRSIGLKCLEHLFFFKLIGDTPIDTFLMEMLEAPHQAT
Description: FIG. 14(A)-(B) illustrates activation of PPARα by aspirin in primary mouse astrocytes. 14(A) Cells were treated with 5 μM aspirin for different min intervals followed by isolation of nuclear extracts and electrophoretic mobility shift assay for monitoring DNA-binding activity of PPARα using PPARα-binding site of the Tfeb promoter as a probe. 14(B) Astrocytes isolated from wild type, PPARα (−/−) and PPARβ (−/−) mice were transfected with PPAR luciferase reporter (PPRE-x3-TK-luc) plasmid and after 24 h of transfection, cells were stimulated with different doses of aspirin. After 4 h, firefly luciferase activity was measured in total cell extracts. Results are mean +SD of three different experiments. ^ap<0.001 vs control.

CC(=O)Oc1ccccc1C(=O)O [aspirin]
level of LAMP2 (Western blot) ([1]; PPARα (−/−) astrocytes, 24 h): not PPARα (−/−)
level of LAMP2 (Western blot) ([1]; PPARβ (−/−) astrocytes, 24 h): dose-dependently increased the level of LAMP2
level of LAMP2 (Western blot) ([1]; WT astrocytes, 24 h): dose-dependently increased the level of LAMP2
LAMP2 protein expression (Western blot), time course ([1]; astrocytes, 5 μM aspirin, serum-free): time-dependent increase
LAMP2 protein expression (Western blot), dose ([1]; astrocytes, aspirin 2 and 5 μM, 24 h): increase in LAMP2 protein expression
earliest time at which increase in TPP1 protein was evident ([2]; 5 μM aspirin): 2 h
time of maximum increase in TPP1 protein ([2]; 5 μM aspirin): 12 h
TPP1 protein (Western blot), dose ([2]; aspirin 2 and 5 μM, 24 h): increase in TPP1 protein
DNA-binding activity of PPARα (EMSA) [3]: time-dependent increase in PPARα activation
